Reference: patent US8859549B2, “Potassium channel modulators” (AbbVie, Inc., priority 2011, dated 2014)

Biological target: T1, KCNQ 2/3 channels (Homo sapiens, UniProt O43525+O43526)
T1 construct: expressed in transfected cells; host or cells: HEK293
Assay: KCNQ 2/3 channel activation, thallium flux FLIPR assay (BTC-AM dye)
Type: cell-based
Details: for Emax: HEK293, maximum response relative to the response of 10 μM retigabine (set at 100%), HEK293 KCNQ2/KCNQ3 cells, read-out: % MAX; for EC50: HEK293 cells stably expressing human KCNQ2 and KCNQ3 subunits, thallium-induced fluorescence, 4 min compound incubation
How it was run: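 HEK293 cells stably expressing human KCNQ2/KCNQ3 were loaded with BTC-AM (3 μg/mL, 2 h, RT) and preincubated with compound for 4 min in pH 7.3 gluconate buffer containing 0.1 mM ouabain. Flux was triggered by 6 mM TlNO3/10 mM K2SO4 and read for 3 min; EC50 came from summed responses over basal, with maximum relative to 10 μM retigabine (100%).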

Row | SMILES | Emax | EC50
1 | NC(=O)c1cc(-c2nn(NC(=O)CC3CC4CCC3C4)c(=O)c3ccccc23)ccn1 (racemic) [Example 72, (±)-4-(3-{[(exo)-bicyclo[2.2.1]hept-2-ylacetyl]amino}-4-oxo-3,4-dihydrophthalazin-1-yl)pyridine-2-carboxamide] | 13.7% | –
2 | O=C(CC1CC2CCC1C2)Nn1nc(CNC(=O)OCc2ccccc2)c2ccccc2c1=O (racemic) [Example 96, (±)-benzyl[(3-{[(exo)-bicyclo[2.2.1]hept-2-ylacetyl]amino}-4-oxo-3,4-dihydrophthalazin-1-yl)methyl]carbamate] | 79.4% | 315 nM
3 | Cc1ccc(S(=O)(=O)NCc2nn(NC(=O)Cc3ccc(Cl)cc3)c(=O)c3ccccc23)cc1 [Example 78, 2-(4-chlorophenyl)-N-[4-({[(4-methylphenyl)sulfonyl]amino}methyl)-1-oxophthalazin-2(1H)-yl]acetamide] | 44.1% | 9490 nM
4 | O=C(Cc1cc(F)cc(F)c1)Nn1nc([S+]([O-])c2ccccc2)c2ccccc2c1=O (centres unmarked) [Example 83, 2-(3,5-difluorophenyl)-N-[1-oxo-4-(phenylsulfinyl)phthalazin-2(1H)-yl]acetamide] | 105% | 1100 nM
5 | O=C(Cc1cc(F)cc(F)c1)Nn1nc(C2=CCOCC2)c2ccccc2c1=O [Example 7, 2-(3,5-difluorophenyl)-N-[4-(3,6-dihydro-2H-pyran-4-yl)-1-oxophthalazin-2(1H)-yl]acetamide] | 140% | 3130 nM
6 | CC(C)(C)OC(=O)N1CCN(C(=O)c2nn(NC(=O)CC3CC4CCC3C4)c(=O)c3ccccc23)CC1 (racemic) [Example 98, (±)-tert-butyl 4-[(3-{[(exo)-bicyclo[2.2.1]hept-2-ylacetyl]amino}-4-oxo-3,4-dihydrophthalazin-1-yl)carbonyl]piperazine-1-carboxylate] | 140% | 4970 nM
7 | Cc1ccsc1-c1nn(NC(=O)CC2CC3CCC2C3)c(=O)c2ccccc12 (racemic) [Example 16, (±)-2-[(exo)-bicyclo[2.2.1]hept-2-yl]-N-[4-(3-methylthiophen-2-yl)-1-oxophthalazin-2(1H)-yl]acetamide] | 140% | 116 nM
8 | O=C(CC1CC2CCC1C2)Nn1nc(Sc2ccccc2)c2ccccc2c1=O (racemic) [Example 59, (±)-2-[(exo)-bicyclo[2.2.1]hept-2-yl]-N-[1-oxo-4-(phenylsulfanyl)phthalazin-2(1H)-yl]acetamide] | 192% | 14.6 nM
9 | O=C(Cc1ccc(Cl)cc1)Nn1nc([S+]([O-])c2ccccc2)c2ccccc2c1=O (centres unmarked) [Example 82, 2-(4-chlorophenyl)-N-[1-oxo-4-(phenylsulfinyl)phthalazin-2(1H)-yl]acetamide] | 119% | 872 nM
10 | O=C(Cc1cc(F)cc(F)c1)Nn1nc(N2CCSCC2)c2ccccc2c1=O [Example 92, 2-(3,5-difluorophenyl)-N-[1-oxo-4-(thiomorpholin-4-yl)phthalazin-2(1H)-yl]acetamide] | 187% | 618 nM
11 | NCc1nn(NC(=O)Cc2ccc(Cl)cc2)c(=O)c2ccccc12 [Example 42, N-[4-(aminomethyl)-1-oxophthalazin-2(1H)-yl]-2-(4-chlorophenyl)acetamide] | 8.66% | –
12 | CC1CN(c2nn(NC(=O)Cc3ccc(Cl)cc3)c(=O)c3ccccc23)CC(C)O1 (centres unmarked) [Example 62, 2-(4-chlorophenyl)-N-[4-(2,6-dimethylmorpholin-4-yl)-1-oxophthalazin-2(1H)-yl]acetamide] | 85.8% | 369 nM
13 | CCOC(=O)c1nn(NC(=O)Cc2ccc(Cl)cc2)c(=O)c2ccccc12 [Example 63, ethyl 3-{[(4-chlorophenyl)acetyl]amino}-4-oxo-3,4-dihydrophthalazine-1-carboxylate] | 64.8% | 862 nM
14 | O=C(CC1CC2CCC1C2)Nn1nc(S(=O)(=O)c2ccccc2)c2ccccc2c1=O (racemic) [Example 70, (±)-2-[(exo)-bicyclo[2.2.1]hept-2-yl]-N-[1-oxo-4-(phenylsulfonyl)phthalazin-2(1H)-yl]acetamide] | 179% | 13.1 nM
15 | CC(C)(C)OC(=O)NCc1nn(NC(=O)CC2CC3CCC2C3)c(=O)c2ccccc12 (racemic) [Example 44, (±)-tert-butyl[(3-{[(exo)-bicyclo[2.2.1]hept-2-ylacetyl]amino}-4-oxo-3,4-dihydrophthalazin-1-yl)methyl]carbamate] | 116% | 294 nM
16 | O=C(Cc1cc(F)cc(F)c1)Nn1nc(Cc2ccc(Cl)nc2)c2ccccc2c1=O [Example 31, N-{4-[(6-chloropyridin-3-yl)methyl]-1-oxophthalazin-2(1H)-yl}-2-(3,5-difluorophenyl)acetamide] | 72.1% | 330 nM

More lines, now with the values ahead:

Row | Emax | EC50 | SMILES
17 | 135% | 7680 nM | O=C(CC1CCCC1)Nn1nc(N2CCOCC2)c2ccccc2c1=O [Example 137, 2-cyclopentyl-N-[4-(morpholin-4-yl)-1-oxophthalazin-2(1H)-yl]acetamide]
18 | 87.4% | 180 nM | O=C(Cc1ccc(Cl)cc1)Nn1nc(Oc2ccccc2)c2ccccc2c1=O [Example 127, 2-(4-chlorophenyl)-N-(1-oxo-4-phenoxyphthalazin-2(1H)-yl)acetamide]
19 | 17.1% | – | CC(C(=O)NC(C)(C)C)c1nn(NC(=O)Cc2ccc(Cl)cc2)c(=O)c2ccccc12 (centres unmarked) [Example 112, N-tert-butyl-2-(3-{[(4-chlorophenyl)acetyl]amino}-4-oxo-3,4-dihydrophthalazin-1-yl)propanamide]
20 | 21.6% | – | O=C(Cc1ccc(Cl)cc1)Nn1nc(CNC(=O)OC2CCCCC2)c2ccccc2c1=O [Example 128, cyclohexyl[(3-{[(4-chlorophenyl)acetyl]amino}-4-oxo-3,4-dihydrophthalazin-1-yl)methyl]carbamate]
21 | 101% | 320 nM | CCC1CN(c2nn(NC(=O)Cc3ccc(Cl)cc3)c(=O)c3ccccc23)CCO1 (centres unmarked) [Example 221, 2-(4-chlorophenyl)-N-[4-(2-ethylmorpholin-4-yl)-1-oxophthalazin-2(1H)-yl]acetamide]
22 | 71.8% | 938 nM | COc1cccc(CC(=O)Nn2nc(S(=O)(=O)c3ccccc3)c3ccccc3c2=O)c1 [Example 205, 2-(3-methoxyphenyl)-N-[1-oxo-4-(phenylsulfonyl)phthalazin-2(1H)-yl]acetamide]
23 | 139% | 57.9 nM | CCC1CN(c2nn(NC(=O)CC3CC4CCC3C4)c(=O)c3ccccc23)CCO1 (racemic) [Example 220, (±)-2-[(exo)-bicyclo[2.2.1]hept-2-yl]-N-[4-(2-ethylmorpholin-4-yl)-1-oxophthalazin-2(1H)-yl]acetamide]
24 | 74.3% | 10600 nM | O=C(CC1CC2CCC1C2)Nn1nc(N2CCS(=O)(=O)CC2)c2ccccc2c1=O (racemic) [Example 190, (±)-2-[(exo)-bicyclo[2.2.1]hept-2-yl]-N-[4-(1,1-dioxidothiomorpholin-4-yl)-1-oxophthalazin-2(1H)-yl]acetamide]
25 | 32% | – | O=C(Cc1ccc(Cl)cc1)Nn1nc(CNC(=O)OC2CCCC2)c2ccccc2c1=O [Example 187, cyclopentyl[(3-{[(4-chlorophenyl)acetyl]amino}-4-oxo-3,4-dihydrophthalazin-1-yl)methyl]carbamate]
26 | 86.2% | 149 nM | N#Cc1ccc(S(=O)(=O)c2nn(NC(=O)Cc3cc(F)cc(F)c3)c(=O)c3ccccc23)cc1 [Example 223, N-{4-[(4-cyanophenyl)sulfonyl]-1-oxophthalazin-2(1H)-yl}-2-(3,5-difluorophenyl)acetamide]
27 | 40.7% | 2850 nM | CC(C)(C)OC(=O)NCc1nn(NC(=O)Cc2ccc(C(F)(F)F)cc2)c(=O)c2ccccc12 [Example 118, tert-butyl{[4-oxo-3-({[4-(trifluoromethyl)phenyl]acetyl}amino)-3,4-dihydrophthalazin-1-yl]methyl}carbamate]
28 | 6.84% | – | O=C(Cc1ccc(-c2ccccc2)cc1)Nn1nc(N2CCOCC2)c2ccccc2c1=O [Example 158, 2-(biphenyl-4-yl)-N-[4-(morpholin-4-yl)-1-oxophthalazin-2(1H)-yl]acetamide]
29 | 17.6% | – | COc1cccc(CC(=O)Nn2nc(N3CCOCC3)c3ccccc3c2=O)c1 [Example 146, 2-(3-methoxyphenyl)-N-[4-(morpholin-4-yl)-1-oxophthalazin-2(1H)-yl]acetamide]
30 | 136% | 3180 nM | O=C(CC1CC2CCC1C2)Nn1nc(C(=NO)c2ccccc2)c2ccccc2c1=O (racemic) [Example 120, (±)-2-[(exo)-bicyclo[2.2.1]hept-2-yl]-N-{4-[(Z)-(hydroxyimino)(phenyl)methyl]-1-oxophthalazin-2(1H)-yl}acetamide]
31 | 21.8% | – | CC(C(=O)NCC(C)(C)C)c1nn(NC(=O)Cc2ccc(Cl)cc2)c(=O)c2ccccc12 (centres unmarked) [Example 113, 2-(3-{[(4-chlorophenyl)acetyl]amino}-4-oxo-3,4-dihydrophthalazin-1-yl)-N-(2,2-dimethylpropyl)propanamide]
32 | 17.1% | – | O=C(Cc1cccc(Oc2ccccc2)c1)Nn1nc(N2CCOCC2)c2ccccc2c1=O [Example 131, N-[4-(morpholin-4-yl)-1-oxophthalazin-2(1H)-yl]-2-(3-phenoxyphenyl)acetamide]
33 | 72% | 5240 nM | Cc1ccc(CC(=O)Nn2nc(N3CCOCC3)c3ccccc3c2=O)cc1 [Example 141, 2-(4-methylphenyl)-N-[4-(morpholin-4-yl)-1-oxophthalazin-2(1H)-yl]acetamide]
34 | 75.3% | 11800 nM | CC(C)(C)CC(=O)Nn1nc(N2CCOCC2)c2ccccc2c1=O [Example 135, 3,3-dimethyl-N-[4-(morpholin-4-yl)-1-oxophthalazin-2(1H)-yl]butanamide]
